# Test results: patent US20240239781A1, “1H-PYRAZOLE DERIVATIVES AS SIGMA LIGANDS” (ACONDICIONAMIENTO TARRASENSE, priority 2021, published 2024)
# Assays:
# human σ2/TMEM97 receptor = target: T1, human σ2/TMEM97 receptor (Homo sapiens, UniProt Q5BJF2); assay: Binding assay to human σ2/TMEM97 receptor ([3H]-DTG, transfected HEK-293 membranes); conditions: class scale, read-out: Binding σ-2 Ki
# T1 construct: expressed in transfected cells; host or cells: HEK-293
# Procedure, shortened: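 Membranes (15 μg) from transfected HEK-293 incubated 120 min at 25 °C with 10 nM [3H]-DTG in 50 mM Tris-HCl pH 8.0; nonspecific binding with 10 μM haloperidol. Filtration and scintillation counting; % inhibition at 1 or 10 μM, or Ki from five concentrations.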
# human σ1 receptor = target: T2, human σ1 receptor (Homo sapiens, UniProt Q99720); assay: Human σ1 receptor radioligand assay ([3H](+)-pentazocine, transfected HEK-293 membranes); conditions: class scale, read-out: Binding σ-1 Ki
# T2 construct: expressed in transfected cells; host or cells: HEK-293
# Procedure, shortened: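 Membranes (7 μg) from transfected HEK-293 cells were incubated with 5 nM [3H](+)-pentazocine in 50 mM Tris-HCl, pH 8, for 120 minutes at 37° C, with 10 μM haloperidol defining non-specific binding. Bound radioactivity was filtered and counted by scintillation. Results are % inhibition at 1 or 10 μM or Ki from five concentrations.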
# T2 sequence (Q99720 whole entry): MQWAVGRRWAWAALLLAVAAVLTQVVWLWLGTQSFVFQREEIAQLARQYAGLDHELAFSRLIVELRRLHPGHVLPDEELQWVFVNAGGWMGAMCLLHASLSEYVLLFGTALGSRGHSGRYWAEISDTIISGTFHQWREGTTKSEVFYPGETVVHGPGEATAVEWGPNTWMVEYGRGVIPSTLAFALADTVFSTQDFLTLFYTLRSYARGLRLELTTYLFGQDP
# T1 sequence (Q5BJF2 whole entry): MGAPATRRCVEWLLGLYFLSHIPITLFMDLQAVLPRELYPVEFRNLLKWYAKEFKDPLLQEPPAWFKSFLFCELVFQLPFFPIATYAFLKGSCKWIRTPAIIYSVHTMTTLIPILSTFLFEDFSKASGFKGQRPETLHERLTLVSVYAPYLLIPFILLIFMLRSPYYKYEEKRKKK
SMILES,Ki (human σ2/TMEM97 receptor) [µM],Ki (human σ1 receptor) [µM]
"CC(C)CCNC1CCCCN(Cc2c(-c3ccon3)nn(C)c2Cl)C1 (stereo not shown) [Example 34, 1-((5-Chloro-3-(isoxazol-3-yl)-1-methyl-1H-pyrazol-4-yl)methyl)-N-isopentylazepan-3-amine]",0.1 to 0.5,0.5 to 1
"Cc1cc(-c2nn(C)c(Cl)c2CN2CCCC[C@@H](NCCC(C)C)C2)no1 [Example 10, (R)-1-((5-Chloro-1-methyl-3-(5-methylisoxazol-3-yl)-1H-pyrazol-4-yl)methyl)-N-isopentylazepan-3-amine]",0.1 to 0.5,0.1 to 0.5
"Cn1nc(-c2cc(C3CC3)on2)c(CN2CCCCC(NCCC(C)(C)C)C2)c1Cl (stereo not shown) [Example 16, 1-((5-Chloro-3-(5-cyclopropylisoxazol-3-yl)-1-methyl-1H-pyrazol-4-yl)methyl)-N-(3,3-dimethylbutyl)azepan-3-amine]",> 1,0.1 to 0.5
"Cc1cc(-c2nn(C)c(Cl)c2CN2CCC(CNCCc3ccccc3)C2)no1 (stereo not shown) [Example 45, N-((1-((5-Chloro-1-methyl-3-(5-methylisoxazol-3-yl)-1H-pyrazol-4-yl)methyl)pyrrolidin-3-yl)methyl)-2-phenylethanamine]",0.1 to 0.5,0.1 to 0.5
"CCCn1nc(-c2cc(C)on2)c(C(=O)N2CCC3(CCN(CCC(C)(C)C)CC3)CC2)c1Cl [Example 182, (5-Chloro-3-(5-methylisoxazol-3-yl)-1-propyl-1H-pyrazol-4-yl)(9-(3,3-dimethylbutyl)-3,9-diazaspiro[5.5]undecan-3-yl)methanone]",< 0.1,0.1 to 0.5
"CC(C)CCNC1CCCCN(Cc2c(-c3cccnc3)nn(C)c2Cl)C1 (stereo not shown) [Example 31, 1-((5-Chloro-1-methyl-3-(pyridin-3-yl)-1H-pyrazol-4-yl)methyl)-N-isopentylazepan-3-amine]",> 1,0.5 to 1
"CCn1nc(-c2ccon2)c(C(=O)N2CCCC3(CN(CCC(C)(C)C)C3)C2)c1Cl [Example 195, (5-Chloro-1-ethyl-3-(isoxazol-3-yl)-1H-pyrazol-4-yl)(2-(3,3-dimethylbutyl)-2,6-diazaspiro[3.5]nonan-6-yl)methanone]",< 0.1,0.5 to 1
"Cc1cc(-c2nn(C)c(Cl)c2CN2CCCCC(CNCCC(C)C)C2)no1 (stereo not shown) [Example 59, N-((1-((5-Chloro-1-methyl-3-(5-methylisoxazol-3-yl)-1H-pyrazol-4-yl)methyl)azepan-3-yl)methyl)-3-methylbutan-1-amine]",0.1 to 0.5,0.5 to 1
"Cn1ccc(-c2nn(C)c(Cl)c2C(=O)N2CCC3(CCN(CCC(C)(C)C)CC3)CC2)n1 [Example 181, (5-Chloro-1,1′-dimethyl-1H,1′H-[3,3′-bipyrazol]-4-yl)(9-(3,3-dimethylbutyl)-3,9-diazaspiro[5.5]undecan-3-yl)methanone]",0.1 to 0.5,> 1
"CCn1nc(-c2cc(C)on2)c(CC(=O)NC2CCC3(CC2)CCN(CCC(C)(C)C)CC3)c1Cl [Example 216, 2-(5-Chloro-1-ethyl-3-(5-methylisoxazol-3-yl)-1H-pyrazol-4-yl)-N-(3-(3,3-dimethylbutyl)-3-azaspiro[5.5]undecan-9-yl)acetamide]",< 0.1,< 0.1
"Cc1cc(-c2nn(C)c(Cl)c2C(=O)N2CCC3(CC2)CC(NCCC(C)(C)C)C3)no1 [Example 174, (5-Chloro-1-methyl-3-(5-methylisoxazol-3-yl)-1H-pyrazol-4-yl)(2-((3,3-dimethylbutyl)amino)-7-azaspiro[3.5]nonan-7-yl)methanone]",< 0.1,0.5 to 1
"Cc1cc(-c2nn(C)c(Cl)c2CN2C[C@@H](CNCCC(C)(C)C)[C@H](C)C2)no1 [Example 77, N-(((3R,4S)-1-((5-Chloro-1-methyl-3-(5-methylisoxazol-3-yl)-1H-pyrazol-4-yl)methyl)-4-methylpyrrolidin-3-yl)methyl)-3,3-dimethylbutan-1-amine]",< 0.1,0.1 to 0.5
"Cc1cc(-c2nn(C)c(Cl)c2CCN2CCCC[C@H](NCCC(C)C)C2)no1 [Example 119, (S)-1-(2-(5-Chloro-1-methyl-3-(5-methylisoxazol-3-yl)-1H-pyrazol-4-yl)ethyl)-N-isopentylazepan-3-amine]",0.1 to 0.5,< 0.1
"Cc1cc(-c2nn(-c3ccccc3)c(Cl)c2C(=O)N2CCC3(CCN(CCC(C)(C)C)CC3)CC2)no1 [Example 101, (5-Chloro-3-(5-methylisoxazol-3-yl)-1-phenyl-1H-pyrazol-4-yl)(9-(3,3-dimethylbutyl)-3,9-diazaspiro[5.5]undecan-3-yl)methanone]",< 0.1,< 0.1
Cc1cc(-c2nn(C)c(Cl)c2CC(=O)N2CCC3(CCN(CCC(C)C)CC3)CC2)no1 [Example 120],< 0.1,0.1 to 0.5
"Cc1cc(-c2nn(C)c(Cl)c2C(=O)N2CCC3(CCCN(CCC(C)(C)C)C3)CC2)no1 [Example 91, (5-Chloro-1-methyl-3-(5-methylisoxazol-3-yl)-1H-pyrazol-4-yl)(2-(3,3-dimethylbutyl)-2,9-diazaspiro[5.5]undecan-9-yl)methanone]",< 0.1,0.5 to 1
"CCCn1nc(-c2cc(C)on2)c(CN2CC3(CCN(CCC(C)(C)C)CC3)CC2=O)c1Cl [Example 226, 2-((5-Chloro-3-(5-methylisoxazol-3-yl)-1-propyl-1H-pyrazol-4-yl)methyl)-8-(3,3-dimethylbutyl)-2,8-diazaspiro[4.5]decan-3-one]",< 0.1,0.1 to 0.5
"Cc1cc(-c2nn(C)c(Cl)c2C(=O)N2CCCCC(NCCC(C)C)C2)no1 (stereo not shown) [Example 84, (5-Chloro-1-methyl-3-(5-methylisoxazol-3-yl)-1H-pyrazol-4-yl)(3-(isopentylamino)azepan-1-yl)methanone]",0.1 to 0.5,> 1
"CCn1nc(-c2cc(C)on2)c(C(=O)N[C@H]2CCN(CCC(C)(C)C)C2)c1Cl [Example 164, (S)-5-Chloro-N-(1-(3,3-dimethylbutyl)pyrrolidin-3-yl)-1-ethyl-3-(5-methylisoxazol-3-yl)-1H-pyrazole-4-carboxamide]",0.1 to 0.5,< 0.1

# Second part, the molecule after the results:
Ki (human σ2/TMEM97 receptor) [µM],Ki (human σ1 receptor) [µM],SMILES
0.1 to 0.5,0.1 to 0.5,"Cc1cc(-c2nn(C)c(Cl)c2C(=O)N2CC3(CCN(CCC(C)(C)C)CC3)C2)no1 [Example 104, (5-Chloro-1-methyl-3-(5-methylisoxazol-3-yl)-1H-pyrazol-4-yl)(7-(3,3-dimethylbutyl)-2,7-diazaspiro[3.5]nonan-2-yl)methanone]"
< 0.1,0.5 to 1,"Cn1cc(-c2nn(C)c(Cl)c2C(=O)NC2CC3(CCN(CCC(C)(C)C)CC3)C2)cn1 [Example 140, 5-Chloro-N-(7-(3,3-dimethylbutyl)-7-azaspiro[3.5]nonan-2-yl)-1,1′-dimethyl-1H,1′H-[3,4′-bipyrazole]-4-carboxamide]"
< 0.1,< 0.1,"Cn1nc(-c2cccc(C(F)(F)F)n2)c(C(=O)NC2CCC3(CC2)CCN(CCC(C)(C)C)CC3)c1Cl [Example 147, 5-Chloro-N-(3-(3,3-dimethylbutyl)-3-azaspiro[5.5]undecan-9-yl)-1-methyl-3-(6-(trifluoromethyl)pyridin-2-yl)-1H-pyrazole-4-carboxamide]"
< 0.1,0.5 to 1,"CCn1cc(-c2nn(C)c(Cl)c2C(=O)NC2CC3(CCN(CCC(C)(C)C)CC3)C2)cn1 [Example 145, 5-Chloro-N-(7-(3,3-dimethylbutyl)-7-azaspiro[3.5]nonan-2-yl)-1′-ethyl-1-methyl-1H,1′H-[3,4′-bipyrazole]-4-carboxamide]"
< 0.1,0.5 to 1,"CCn1ccc(-c2nn(C)c(Cl)c2C(=O)N2CCCC3(CCN(CCC(C)(C)C)CC3)C2)n1 [Example 138, (5-Chloro-1′-ethyl-1-methyl-1H,1′H-[3,3′-bipyrazol]-4-yl)(9-(3,3-dimethylbutyl)-2,9-diazaspiro[5.5]undecan-2-yl)methanone]"
> 1,> 1,"Cc1cc(-c2nn(C)c(Cl)c2C(=O)N2CCC[C@H](NCCC(C)C)C2)no1 [Example 109, (S)-(5-Chloro-1-methyl-3-(5-methylisoxazol-3-yl)-1H-pyrazol-4-yl)(3-(isopentylamino)piperidin-1-yl)methanone]"
< 0.1,0.1 to 0.5,"Cc1cc(-c2nn(-c3ccncc3)c(Cl)c2C(=O)N2CCC3(CCN(CCC(C)(C)C)CC3)CC2)no1 [Example 170, (5-Chloro-3-(5-methylisoxazol-3-yl)-1-(pyridin-4-yl)-1H-pyrazol-4-yl)(9-(3,3-dimethylbutyl)-3,9-diazaspiro[5.5]undecan-3-yl)methanone]"
< 0.1,0.5 to 1,"CCn1nc(-c2cc(C)on2)c(CC(=O)N2CCC3(CCN(CCC(C)(C)C)CC3)CC2)c1Cl [Example 210, 2-(5-Chloro-1-ethyl-3-(5-methylisoxazol-3-yl)-1H-pyrazol-4-yl)-1-(9-(3,3-dimethylbutyl)-3,9-diazaspiro[5.5]undecan-3-yl)ethan-1-one]"
0.1 to 0.5,0.1 to 0.5,"CCc1cc(-c2nn(C)c(Cl)c2CN2CCCCC(NCCC(C)(C)C)C2)no1 (stereo not shown) [Example 20, 1-((5-Chloro-3-(5-ethylisoxazol-3-yl)-1-methyl-1H-pyrazol-4-yl)methyl)-N-(3,3-dimethylbutyl)azepan-3-amine]"
< 0.1,< 0.1,"CCn1nc(-c2cc(C)on2)c(C(=O)NC2CCN(CCC(C)(C)C)CC2)c1Cl [Example 159, 5-Chloro-N-(1-(3,3-dimethylbutyl)piperidin-4-yl)-1-ethyl-3-(5-methylisoxazol-3-yl)-1H-pyrazole-4-carboxamide]"
